ChEMBL document CHEMBL3351457, “Design and synthesis of 8-hydroxyquinoline-based radioprotective agents” (Bioorg Med Chem, 2014)
Activity calls are given as the source filed them. The calls are words filed in the database; no cut-off is given here.

Assays:
MOLT-4 [1] = assay: Radioprotective activity against gamma-irradiated human MOLT4 cells preincubated for 1 hr at 100 to 400 uM before gamma-irradiation measured after 18 hrs by erythrosine B dye-exclusion test; assay type: functional, cell-based
MOLT-4 [2] = assay: Inhibition of apoptosis in gamma-irradiated human MOLT4 cells preincubated for 1 hr at 100 to 400 uM before gamma-irradiation measured after 18 hrs by erythrosine B dye-exclusion test; assay type: functional, cell-based
MOLT-4 [3] = assay: Cytotoxicity against human MOLT4 cells at 100 to 400 uM after 18 hrs by erythrosine B dye-exclusion test; assay type: cell-based; settings: molt-4, 18 h
MOLT-4 [4] = assay: Cytotoxicity against human MOLT4 cells at 200 to 300 uM after 18 hrs by erythrosine B dye-exclusion test; assay type: cell-based; settings: molt-4, 18 h
[5] = Stability of the compound assessed as hydrolysis at 37 degC after 18 hrs; assay type: physicochemical
Jurkat [6] = assay: Cytotoxicity against p53-inactive human Jurkat cells at after 18 hrs by erythrosine B dye-exclusion test; assay type: cell-based
[7] = Antioxidant activity assessed as DPPH free radical scavenging activity by UV-vis spectrophotometry; assay type: physicochemical
Jurkat [8] = assay: Radioprotective activity against gamma-irradiated p53-inactive human Jurkat cells at after 18 hrs by erythrosine B dye-exclusion test; assay type: functional, cell-based
MOLT-4 [9] = assay: Inhibition of apoptosis in gamma-irradiated human MOLT4 cells compound treated at 100 to 400 uM for 3 hrs post gamma-irradiation after 18 hrs by erythrosine B dye-exclusion test; assay type: functional, cell-based
MOLT-4 [10] = assay: Radioprotective activity against gamma-irradiated human MOLT4 cells preincubated for 1 hr before gamma-irradiation measured after 18 hrs by erythrosine B dye-exclusion test; assay type: functional, cell-based
[11] = target: Cellular tumor antigen p53 (Homo sapiens) (UniProt P04637); assay: Inhibition of recombinant FLAG-p53 (unknown origin) binding to FITC-labeled double-stranded oligonucleotide measured after 3 hrs by EMSA in presence of zinc(II) chelators
Chain of Cellular tumor antigen p53 (Homo sapiens) (P04637 whole entry, looked up): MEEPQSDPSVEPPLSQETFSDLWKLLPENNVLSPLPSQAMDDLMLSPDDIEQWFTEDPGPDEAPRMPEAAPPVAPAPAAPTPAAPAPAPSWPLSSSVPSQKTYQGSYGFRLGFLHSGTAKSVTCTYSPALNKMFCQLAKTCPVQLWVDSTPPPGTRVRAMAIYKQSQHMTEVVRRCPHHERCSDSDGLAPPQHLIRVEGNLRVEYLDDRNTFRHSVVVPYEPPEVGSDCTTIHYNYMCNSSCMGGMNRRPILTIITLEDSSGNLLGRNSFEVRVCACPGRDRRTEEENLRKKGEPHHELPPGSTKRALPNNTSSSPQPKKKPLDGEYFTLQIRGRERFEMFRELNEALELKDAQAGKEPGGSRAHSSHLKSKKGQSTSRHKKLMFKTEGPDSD

[12] = target: Cellular tumor antigen p53 (Homo sapiens) (UniProt P04637); assay: Binding affinity to recombinant FLAG-p53 (unknown origin) assessed as confirmational change measured after 12 hrs by CD spectroscopy in presence of zinc(II) chelators
MOLT-4 [13] = assay: Radioprotective activity against gamma-irradiated human MOLT4 cells preincubated for 1 hr at <50 uM before gamma-irradiation measured after 18 hrs by erythrosine B dye-exclusion test; assay type: functional, cell-based

## Oc1cccc2ccccc12
MOLT-4 [1]
  Activity: inactive

## CNS(=O)(=O)c1ccc(OC)c2nc(C)ccc12
MOLT-4 [2]
  apoptosis inhibition (active/inactive): Active
MOLT-4 [3]
  Activity: Non-toxic

## CNS(=O)(=O)c1cc(S(=O)(=O)NC)c2ccc(C)nc2c1OS(C)(=O)=O
MOLT-4 [4]
  Activity: Toxic
[5]
  Stability: Unstable

## CNS(=O)(=O)c1cc(S(=O)(=O)NC)c2ccc(C)nc2c1O
Jurkat [6]
  Activity: Non-toxic
[7]
  Activity: Not Active
Jurkat [8]
  Activity: inactive
MOLT-4 [9]
  inhibition: Active
MOLT-4 [1]
  Activity: Active
MOLT-4 [10]
  Activity: Dose-dependent effect
MOLT-4 [3]
  Activity: Non-toxic
[11]
  inhibition: inactive
[12]
  Activity: inactive

## VITAMIN E
MOLT-4 [13]
  Activity: Active

## CCOc1c(S(=O)(=O)N(CC)CC)cc(S(=O)(=O)N(CC)CC)c2ccc(C)nc12
MOLT-4 [3]
  Activity: Toxic

## Oc1ccc(Cl)c2cccnc12 [CLOXYQUIN]
MOLT-4 [13]
  Activity: Active
MOLT-4 [3]
  Activity: Toxic

## Cc1ccc2c(S(=O)(=O)N(C)C)ccc(O)c2n1
MOLT-4 [1]
  Activity: Active
MOLT-4 [3]
  Activity: Non-toxic

## CCOc1c(S(=O)(=O)N(C)C)cc(S(=O)(=O)N(C)C)c2ccc(C)nc12
MOLT-4 [2]
  apoptosis inhibition (active/inactive): Active

## Oc1ccc(Cl)c2ccccc12
MOLT-4 [1]
  Activity: inactive

## CNS(=O)(=O)c1cc(S(=O)(=O)NC)c2ccc(C)nc2c1OC
MOLT-4 [2]
  apoptosis inhibition (active/inactive): Active

## COc1cc(/C=C/C(=O)CC(=O)/C=C/c2ccc(O)c(OC)c2)ccc1O
MOLT-4 [13]
  Activity: Active

## Cc1ccc2c(S(=O)(=O)N3CCNCC3)cc(S(=O)(=O)N3CCNCC3)c(O)c2n1
MOLT-4 [1]
  Activity: Active

## CN(C)S(=O)(=O)c1ccc2c(S(=O)(=O)N(C)C)cc(S(=O)(=O)N(C)C)c(O)c2c1
MOLT-4 [1]
  Activity: inactive

## COc1c(I)cc(S(=O)(=O)N(C)C)c2ccc(C)nc12
MOLT-4 [2]
  apoptosis inhibition (active/inactive): Active
MOLT-4 [3]
  Activity: Toxic

## CN(C)S(=O)(=O)c1ccc(O)c2ncccc12
MOLT-4 [1]
  Activity: Active

## CCOc1c(Br)cc(S(=O)(=O)N(C)C)c2ccc(C)nc12
MOLT-4 [3]
  Activity: Toxic

## CCOc1ccc(S(=O)(=O)N(C)C)c2ccc(C)nc12
MOLT-4 [2]
  apoptosis inhibition (active/inactive): Active

## CCOc1c(I)cc(S(=O)(=O)N(C)C)c2ccc(C)nc12
MOLT-4 [3]
  Activity: Toxic

## COc1ccc(S(=O)(=O)N(C)C)c2ccc(C)nc12
MOLT-4 [2]
  apoptosis inhibition (active/inactive): Active
MOLT-4 [3]
  Activity: Non-toxic

## c1ccc2cnccc2c1
MOLT-4 [1]
  Activity: inactive

## COc1c(S(=O)(=O)N(C)C)cc(S(=O)(=O)N(C)C)c2ccc(C)nc12
Jurkat [6]
  Activity: Non-toxic
[7]
  Activity: Not Active
Jurkat [8]
  Activity: inactive
MOLT-4 [9]
  inhibition: Active
MOLT-4 [2]
  apoptosis inhibition (active/inactive): Active
MOLT-4 [3]
  Activity: Non-toxic
[11]
  inhibition: inactive
[12]
  Activity: inactive

## c1ccc(CNCCNCc2ccccn2)nc1
MOLT-4 [13]
  Activity: Active
[12]
  Activity: Active

## Cc1ccc2c(S(=O)(=O)N(C)C)cc(S(=O)(=O)N(C)C)c(O)c2n1
MOLT-4 [3]
  Activity: Toxic

## CCCNS(=O)(=O)c1cc(S(=O)(=O)NCCC)c2ccc(C)nc2c1O
MOLT-4 [3]
  Activity: Toxic

## COc1c(Br)cc(S(=O)(=O)N(C)C)c2ccc(C)nc12
MOLT-4 [2]
  apoptosis inhibition (active/inactive): Active
MOLT-4 [3]
  Activity: Toxic

## CCN(CC)S(=O)(=O)c1cc(S(=O)(=O)N(CC)CC)c2ccc(C)nc2c1O
MOLT-4 [3]
  Activity: Toxic

## c1ccc(CN(CCN(Cc2ccccn2)Cc2ccccn2)Cc2ccccn2)nc1
MOLT-4 [13]
  Activity: Active

## c1ccc2ncccc2c1
MOLT-4 [1]
  Activity: inactive

## CN(C)S(=O)(=O)c1cc(Br)c(O)c2ncccc12
MOLT-4 [1]
  Activity: Active

## Oc1cccc2cccnc12 [OXYQUINOLINE]
MOLT-4 [13]
  Activity: Active
MOLT-4 [3]
  Activity: Toxic

## Cc1ccc2c(S(=O)(=O)N(C)C)cc(Br)c(O)c2n1
MOLT-4 [1]
  Activity: Active
MOLT-4 [3]
  Activity: Non-toxic

## Cc1ccc2cccc(O)c2n1
MOLT-4 [1]
  Activity: Active

## Cc1ccc2c(S(N)(=O)=O)cc(S(N)(=O)=O)c(O)c2n1
MOLT-4 [1]
  Activity: inactive

## Cc1ccc2c(S(=O)(=O)N3CCCNCC3)cc(S(=O)(=O)N3CCCNCC3)c(O)c2n1
MOLT-4 [1]
  Activity: Active

## CNS(=O)(=O)c1cc(S(=O)(=O)NC)c2cccnc2c1O
MOLT-4 [13]
  Activity: inactive
MOLT-4 [1]
  Activity: Active
MOLT-4 [10]
  Activity: Dose-dependent effect

## CCN(CC)S(=O)(=O)c1cc(S(=O)(=O)N(CC)CC)c2ccc(C)nc2c1OC
MOLT-4 [2]
  apoptosis inhibition (active/inactive): Active
MOLT-4 [3]
  Activity: Toxic

## Cc1ccc2c(S(=O)(=O)NCCN)cc(S(=O)(=O)NCCN)c(O)c2n1
MOLT-4 [1]
  Activity: inactive

## O=C1O[C@H]([C@@H](O)CO)C(O)=C1O
MOLT-4 [13]
  Activity: Active
